# Test results reported in PMC11314410, “Synthesis and Anti-Trypanosoma cruzi Activity of New Pyrazole-Thiadiazole Scaffolds” (Molecules, 2024).
# Like-named read-outs stand apart in the source and are kept apart here.
# Columns and labels:
# [1] = system: Trypomastigotes of T. cruzi (Dm28c-Luc); test: microbe, parasite or virus in culture; format: cell-based, Trypanosoma cruzi; details: for IC50 / IC90: Trypanosoma cruzi, Dm28c-Luc, 24 h treatment; for IC50: mean ± SD, read-out: Anti-T. cruzi Activity Trypomastigotes IC50; for IC90: read-out: Anti-T. cruzi Activity Trypomastigotes IC90
# Experimental: (§1) Genetically modified T. cruzi parasites, of clone Dm28c (TcI) expressing the firefly luciferase enzyme gene (Dm28c-Luc), were kindly provided by Dr. Cristina Henriques. T. cruzi Dm28c-Luc was maintained in a Vero cell cultivated in RPMI 1640 medium supplemented with 10% FBS. At 4-day post-infection (dpi), trypomastigotes, released in the cell culture supernatant, were harvested, followed by sedimentation (4000 rpm/20 min/4 °C) and quantification in a Neubauer chamber. Isolated trypomastigotes were used in the phenotypic screening assays as well as the antiparasitic activity in 3D cardiac microtissues, recovery (washout), and drug combination assays.
# Drug screening was performed against clinically relevant forms of T. cruzi (amastigotes and trypomastigotes). Trypomastigotes, Dm28c-Luc (1 × 10^6 parasites/well), were added to 96-well plates and incubated with pyrazole-thiadiazole derivatives or Bz (100–0.41 µM). After 24 h of treatment (37 °C), the viability of the parasites was analyzed by adding a D-Luciferin solution (300 µg/mL) and luminescence was measured in the Glomax microplate reader.
# [2] = system: Intracellular amastigotes of T. cruzi (Dm28c-Luc); test: microbe, parasite or virus in culture; format: cell-based, Trypanosoma cruzi; details: for IC50 / IC90: Trypanosoma cruzi; for IC90: read-out: Anti-T. cruzi Activity Intracellular Amastigotes IC90
# Experimental: as §1
# The activity of pyrazole-thiadiazole derivatives against intracellular amastigotes was evaluated in 24 h-T. cruzi infected Vero cell cultures (1.5 × 10^4 cells/well) at a 10:1 ratio. The cultures were washed and incubated with serial dilutions of the derivatives or Bz (100–0.41 µM). Drug treatment was carried out for 72 h at 37 °C and the parasite viability was determined by luminescence readout after D-Luciferin substrate addition (300 µg/mL). The reading was performed in the Glomax reader. The cell cultures incubated with the culture medium containing dimethylsulphoxide (DMSO; concentration ≤ 1%) were used as the […]. The concentrations required to inhibit parasite viability by 50% (IC50) and 90% (IC90) were calculated using Prism GraphPad software (version 8.2.1). The selectivity index (SI), which measures the window between cytotoxicity (CC50) and anti-T. cruzi activity (IC50), was calculated as CC50/IC50. A minimum of 3 independent assays in duplicate were performed.
# [3] = Toxicity in mammalian cells (CellTiter Glo, 72 h); format: cell-based; details: African green monkey, Vero cells; 72 h, ATP levels; read-out: Cytotoxicity Vero Cells CC50
# Experimental: (§2) Vero cell cultures grown in RPMI 1640 medium containing 10% fetal bovine serum (FBS) were cultured at 37 °C in a humidified atmosphere of 5% CO2 [82]. The cultures were used for drug screening assays and to obtain culture-derived trypomastigotes of T. cruzi.
# (§3) Vero cells (1.5 ×10^4 cells/well), cultivated for 24 h at 37 °C in white 96-well plates with clear bottoms, were used to assess the toxicity of the pyrazole-thiadiazole derivatives (series 1 and 2). After washing, the cells were incubated for 72 h at 37 °C with different drug concentrations (500–1.95 μM). Cell viability was measured by adding 20 μL/well of CellTiter Glo reagent (Promega Corporation, Madison, WI, USA). This cell viability kit generates a luminescent signal proportional to the amount of ATP. The luminescence readout was performed using the Glomax Microplate Reader (Promega Corporation, Madison, WI, USA). Thus, the 50% cytotoxicity concentration (CC50), which reduces the cell viability by 50% (CC50), was calculated with Prism GraphPad software (version 8.2.1).
# Vero cells = test: Toxicity in mammalian cells (CellTiter Glo, 72 h); format: cell-based
# Experimental: as §2, §3
# [4] = Cardiac toxicity in 2D cardiac monolayers (CellTiter-Glo, 72 h); format: cell-based, Swiss webster mice; details: Swiss webster, mouse, primary cardiac muscle cell monolayers (2D culture), ATP levels
# Experimental: The primary culture of heart muscle cells was obtained from fetuses of Swiss webster mice. The heart was removed and the ventricles were fragmented and subjected to dissociation with trypsin and collagenase type II (Worthington Biochemical Corporation, Lakewood, USA) dissociation solution. Cell monolayers were employed to evaluate drug-induced cardiotoxicity.
# (§4) The 2D cardiac cultures (5 × 10^4 cells/well) and 3D cardiac microtissues (2.5 × 10^4 cells/well) were incubated for 72 h at 37 °C with pyrazole-thiadiazole candidates followed by ATP detection by CellTiter-Glo [86]. A minimum of 3 independent assays were performed in duplicate.
# [5] = Cardiac toxicity in 3D cardiac spheroids (CellTiter-Glo, 72 h); format: cell-based, Swiss webster mice; details: Swiss webster, mouse, 3D cardiac microtissue (cardiac spheroids), ATP levels, read-out: Toxicity CC50 3D Culture
# Experimental: (§5) Three-dimensional (3D) cardiac cells were obtained as previously described. Briefly, isolated cardiac muscle cells (2.5 × 10^4 cells/well) were seeded in 96-well U-bottom plates coated with agarose (1%) to form cell aggregates. Cardiac microtissue (7 days in culture) was employed to determine cardiotoxicity and drug efficacy in more complex systems. All animal-use procedures were approved by the Animal Care and Use Committee of Instituto Oswaldo Cruz (license L017/2022-A2).
# as §4
# [6] = system: T. cruzi (Dm28c-Luc) intracellular parasites in 3D cardiac spheroids; test: Antiparasitic activity in T. cruzi-infected 3D cardiac microtissues; format: cell-based, Trypanosoma cruzi; details: 72 h; for inhibition at 100 µM: Trypanosoma cruzi, read-out: Inhibition of parasite load in 3D cardiac microtissue
# Experimental: as §5
# Cardiac spheroids (2.5 × 10^4 cells/well), formed after 7 days of cultivation in a U-bottom plate, were infected for 24 h with trypomastigote forms of T. cruzi (Dm28c-Luc) at a ratio of 20:1 parasite-host cell. After washing, the drugs were added at concentrations of IC90, two times IC90, and 100 µM, respecting the CC20 value of cardiac spheroids as the maximum concentration. Bz was added at 100 µM. Luminescence measurements, which reveal the luciferase activity of the viable parasites, were performed after the addition of D-luciferin substrate (300 µg/mL). The luminescent signal was read in the Glomax reader and the results were represented in arbitrary luminescence units (ALU). The fluorescence microscopy images were also acquired from untreated and drug-treated infected 3D microtissues. Three-dimensional cultures were fixed with 4% paraformaldehyde in PBS and labeled with 4′,6-diamidino-2-phenylindole (DAPI). Images were acquired using a Zeiss Axio Imager M2 fluorescence microscope using Axio vision software (version 4.8).
# [7] = system: T. cruzi (Dm28c-Luc) in Vero cell cultures; test: Washout (recovery) assay in T. cruzi-infected Vero cell cultures; format: cell-based, Trypanosoma cruzi; details: for ALUmean of parasite load in cell monolayer, washout assay: 10 days treatment + 10 days without drug; for inhibition at 150 µM: Trypanosoma cruzi, Vero
# Experimental: The culture medium of the untreated and treated infected cultures was replaced every 3 or 4 days by a fresh medium with or without the pyrazole-thiadiazole derivatives. The presence of free viable parasites in the culture supernatant was monitored at each medium change by adding luciferin (300 µg/mL) followed by readout on a Glomax microplate reader. At the endpoint, culture supernatants and cell monolayers were evaluated for viable parasites. Positive and negative controls were performed using Bz (150 µM) and DMSO (≤1%), respectively. A minimum of 3 independent experimental runs were performed with 12 replicates.
# [8] = system: T. cruzi in 3D cardiac spheroids; set-up: method as in PMID 33383023; details: 10 µM; cited from earlier work
# [9] = system: T. cruzi infection of HeLa spheroids; set-up: method as in PMID 36099853; details: 40 µM pretreatment of HeLa spheroids; cited from earlier work
# [10] = Vero, read-out: Intracellular Amastigotes pIC50 (converted)
# [11] = Dm28c-Luc in Vero cells, 72 h treatment, mean ± SD, read-out: Anti-T. cruzi Activity Intracellular Amastigotes IC50
# [12] = Dm28c-Luc in Vero cells, 72 h treatment, mean ± SD
Compound,Trypomastigotes SI (CC50 of Vero cells/IC50 of trypomastigotes) [1],IC90 [1],"IC50 [2, 10]","IC50 [2, 11]","IC90 [2, 12]",CC50 at 72 h [3],CC50 at 72 h [4],CC50 at 72 h [5],"ALUmean (luminescence, parasite load) in 3D cardiac microtissue ([6]; 100 µM)","ALUmean of parasite load in cell monolayer, washout assay ([7]; 150 µM)",other results
"Nc1nnc(-c2cnn(-c3ccc([N+](=O)[O-])cc3)c2N)s1 [2k, 5-Amino-2-(5-amino-1-(4-nitrophenyl)-1H-pyrazol-4-yl)-1,3,4-thiadiazole]",>5,> 100 µM,10.5 µM,10.4 ± 1.21 µM,23.2 ± 4.23 µM,> 500 µM,191 ± 21 µM,> 500 µM,5366 ± 2348 ALU,4845 ± 2419 ALU,"IC50 ([1]; 24 h): > 100 µM; CC20 for Vero cell monolayers (Vero cells): > 500 µM; inhibition at 100 µM ([6]; 100 µM, vs infected untreated): 86%; Activity relative to 1c in cell monolayer, washout assay ([7]; 150 µM): 11.8 times; Activity relative to 1c in cell monolayer, washout assay ([7]; 300 µM): 19.8 times; Reduction of parasite release vs untreated infected group ([7]; 300 µM, 14 dpi): 93%; ALUmean of parasite load in cell monolayer, washout assay ([7]; 300 µM): 3349 ± 1767 ALU; Prevention of reactivation of infection after drug withdrawal ([7]; washout assay): did not prevent parasite recrudescence; melting point: 321 to 323 °C"
"O=C(Cn1ccnc1[N+](=O)[O-])NCc1ccccc1 [Bz, benznidazole, reference compound]",>38.88,> 100 µM,3.63 µM,3.61 ± 1.25 µM,11.5 ± 4.17 µM,> 500 µM,> 500 µM,> 500 µM,3520 ± 2198 ALU,3426 ± 1727 ALU,IC50 [1]: 12.8 ± 2.66 µM; Intracellular Amastigotes SI (CC50 of Vero cells/IC50 of intracellular amastigotes) [2]: >158.23; inhibition at 100 µM [6]: 91%; inhibition at 150 µM ([7]; read-out: Inhibition in the release of trypomastigotes): 77%; inhibition at 150 µM ([7]; read-out: Inhibition of parasite release): 82%; Reduction of parasite load [8]: 92%
Oc1ccc(/C=C/c2cc(O)cc(O)c2)cc1 [resveratrol],,,,,,,,,,,Reduction of T. cruzi infection level [9]: 50%
